US3939143A, “1-N-isoserylkanamycins and the production thereof” (Zaidan Hojin Biseibutsu Kagaku Kenkyu Kai, priority 1973, dated 1976)
Like-named read-outs stand apart in the source and are kept apart here.

What was measured:
[1] = test system: gram-negative and gram-positive bacteria; assay: antibacterial activity, in words; type: cell-based; conditions: gram-negative and gram-positive bacteria sensitive to kanamycins
Experimental: (§1) The minimum inhibitory concentrations (mcg/ml) of 1-N-DL-isoserylkanamycin,1-N-DL-isoserylkanamycin B and 1-N-DL-isoseryl-3',4'-dideoxykanamycin B against various microorganisms were determined according to the serial dilution method using nutrient agar medium at 37°C, the estimation being effected after 18 hours incubation. For comparison purposes, the minimum inhibitory concentrations of kanamycin, kanamycin B and 3',4'-dideoxykanamycin B were also determined in the same manner and under the same conditions as mentioned above.
(§2) The antibacterial spectra of 1-N-DL-isoseryl-kanamycin (abbreviated as 1-IS-KM), 1-N-DL-isoseryl-kanamycin B (abbreviated as 1-IS-KMB) and 1-N-DL-isoseryl-3',4'-dideoxykanamycin B (abbreviated as 1-IS-DKB) are shown in the following table together with those of kanamycin (abbreviatedas KM), kanamycin B (abbreviated as KMB) and 3',4'-dideoxykanamycin B (abbreviated as DKB).

[2] = test system: Staphylococcus aureus FDA 209P; assay: Minimum inhibitory concentration, serial dilution on nutrient agar; type: cell-based; conditions: FDA209P, read-out: Minimum Inhibitory Concentration
Escherichia coli W677 = assay: as above; type: cell-based; conditions: W677, 37°C, 18 hours, read-out: Minimum Inhibitory Concentration
[3] = test system: Escherichia coli K-12 ML 1629; assay: as above; type: cell-based; conditions: read-out: Minimum Inhibitory Concentration
[4] = test system: Klebsiella pneumoniae PCI 602; assay: as above; type: cell-based; conditions: PCI602, 37°C, 18 hours, read-out: Minimum Inhibitory Concentration
[5] = test system: Escherichia coli JR66/W677; assay: as above; type: cell-based; conditions: read-out: Minimum Inhibitory Concentration
[6] = test system: Escherichia coli LA290 R56; assay: as above; type: cell-based; conditions: LA290R56, 18 h, read-out: Minimum Inhibitory Concentration
[7] = test system: Shigella dysenteriae JS 11910; assay: as above; type: cell-based; conditions: JS11910, 18 h, read-out: Minimum Inhibitory Concentration
[8] = test system: Staphylococcus aureus Terajima; assay: as above; type: cell-based; conditions: 37°C, 18 hours, read-out: Minimum Inhibitory Concentration
[9] = test system: Mycobacterium smegmatis ATCC 607; assay: as above; type: cell-based; conditions: Mycolicibacterium smegmatis, ATCC607; 37°C, 18 hours; read-out: Minimum Inhibitory Concentration
[10] = test system: drug-resistant strains of Escherichia coli and Pseudomonas aeruginosa; assay: antibacterial activity against drug-resistant strains, in words; type: cell-based
Sarcina lutea PCI 1001 = assay: Minimum inhibitory concentration, serial dilution on nutrient agar; type: cell-based; conditions: Micrococcus luteus, read-out: Minimum Inhibitory Concentration
Escherichia coli NIHJ = assay: as above; type: cell-based; conditions: read-out: Minimum Inhibitory Concentration
[11] = test system: Pseudomonas aeruginosa 99; assay: as above; type: cell-based; conditions: Pseudomonas aeruginosa, 99, 18 h, read-out: Minimum Inhibitory Concentration
[12] = test system: Bacillus subtilis PCI 219; assay: as above; type: cell-based; conditions: PCI219, 37°C, 18 hours, read-out: Minimum Inhibitory Concentration
[13] = test system: Escherichia coli K-12 ML 1410 R81; assay: as above; type: cell-based; conditions: 18 h, read-out: Minimum Inhibitory Concentration
[14] = test system: Pseudomonas aeruginosa GN315; assay: as above; type: cell-based; conditions: GN315, 37°C, 18 hours, read-out: Minimum Inhibitory Concentration
[15] = test system: Staphylococcus aureus Smith; assay: as above; type: cell-based; conditions: 37°C, 18 hours, read-out: Minimum Inhibitory Concentration
[16] = test system: Escherichia coli LA290 R64; assay: as above; type: cell-based; conditions: LA290R64, 18 h, read-out: Minimum Inhibitory Concentration
[17] = test system: Corynebacterium bovis 1810; assay: as above; type: cell-based; conditions: Corynebacterium bovis, 1810; 37°C, 18 hours; read-out: Minimum Inhibitory Concentration
[18] = test system: Klebsiella pneumoniae 22 No. 3038; assay: as above; type: cell-based; conditions: read-out: Minimum Inhibitory Concentration
[19] = test system: Pseudomonas aeruginosa TI-13; assay: as above; type: cell-based; conditions: TI13, 37°C, 18 hours
Experimental: as §1, §2

[20] = test system: Pseudomonas aeruginosa A3; assay: as above; type: cell-based; conditions: 37°C, 18 hours
Experimental: as §1, §2

[21] = test system: Shigella flexneri 4b JS 11811; assay: as above; type: cell-based; conditions: 4BJS11811, 37°C, 18 hours
Experimental: as §1, §2

Shigella sonnei JS 11746 = assay: as above; type: cell-based; conditions: JS11746, 37°C, 18 hours
Experimental: as §1, §2

[22] = test system: Escherichia coli K-12 ML 1630; assay: as above; type: cell-based; conditions: K12ML1630, 37°C, 18 hours
Experimental: as §1, §2

Escherichia coli K-12 = assay: as above; type: cell-based; conditions: K12, 37°C, 18 hours, read-out: Minimum Inhibitory Concentration
[23] = test system: Pseudomonas aeruginosa No.12; assay: as above; type: cell-based; conditions: read-out: Minimum Inhibitory Concentration
[24] = test system: Bacillus cereus ATCC 10702; assay: as above; type: cell-based; conditions: ATCC10702, 37°C, 18 hours, read-out: Minimum Inhibitory Concentration
Bacillus anthracis = assay: microbe, parasite or virus in culture; type: cell-based; conditions: 18 h, read-out: Minimum Inhibitory Concentration
[25] = acute toxicity upon intravenous injection in mice; type: in vivo; conditions: mouse, in vivo; intravenous injection, mice
[26] = test system: Bacillus subtilis NRRL B-558; assay: Minimum inhibitory concentration, serial dilution on nutrient agar; type: cell-based; conditions: NRRLB558, 37°C, 18 hours, read-out: Minimum Inhibitory Concentration
[27] = test system: Escherichia coli LA290 R55; assay: as above; type: cell-based; conditions: LA290R55, 18 h, read-out: Minimum Inhibitory Concentration
Salmonella typhosa T-63 = assay: as above; type: cell-based; conditions: Salmonella enterica, 18 h, read-out: Minimum Inhibitory Concentration
[28] = test system: Escherichia coli K-12 ML 1410; assay: as above; type: cell-based; conditions: K12ML1410, 37°C, 18 hours, read-out: Minimum Inhibitory Concentration
[29] = test system: Salmonella enteritidis 1891; assay: as above; type: cell-based; conditions: Salmonella enterica, 37°C, 18 hours, read-out: Minimum Inhibitory Concentration
Proteus vulgaris OX 19 = assay: as above; type: cell-based; conditions: OX19, 37°C, 18 hours, read-out: Minimum Inhibitory Concentration

NCC(O)C(=O)N[C@@H]1C[C@H](N)[C@@H](O[C@H]2O[C@H](CN)[C@@H](O)[C@H](O)[C@H]2N)[C@H](O)[C@H]1O[C@H]1O[C@H](CO)[C@@H](O)[C@H](N)[C@H]1O (mixture of isomers) [1-IS-KMB, 1-N-DL-isoserylkanamycin B]
0.78 µg/mL: MIC (Escherichia coli W677) | MIC [4] | MIC [6] | MIC [9] | MIC [16] | MIC (Salmonella typhosa T-63) | MIC [29] | MIC (Proteus vulgaris OX 19)
< 0.2 µg/mL: MIC [8] | MIC [12] | MIC [15] | MIC (Bacillus anthracis) | MIC [26]
3.13 µg/mL: MIC ([3]; K12ML1629, 18 h) | MIC (Escherichia coli NIHJ; 18 h) | MIC [13] | MIC [21] | MIC [22]
12.5 µg/mL: MIC ([5]; JR66/W677, 37°C, 18 hours)
> 100 mg/kg: LD50 [25]
50 µg/mL: MIC [14]
6.25 µg/mL: MIC [7] | MIC (Sarcina lutea PCI 1001; PCI1001, 18 h) | MIC [11] | MIC ([18]; 22NO.3038, 18 h) | MIC [19] | MIC [20] | MIC (Shigella sonnei JS 11746) | MIC ([23]; NO.12, 18 h)
high antibacterial activity: antibacterial activity [1] | antibacterial activity [10]
1.56 µg/mL: MIC ([2]; 18 h) | MIC [17] | MIC (Escherichia coli K-12) | MIC [24] | MIC [27] | MIC [28]

NCC(O)C(=O)N[C@@H]1C[C@H](N)[C@@H](O[C@H]2O[C@H](CN)CC[C@H]2N)[C@H](O)[C@H]1O[C@H]1O[C@H](CO)[C@@H](O)[C@H](N)[C@H]1O (mixture of isomers) [1-IS-DKB, 1-N-DL-isoseryl-3',4'-dideoxykanamycin B]
12.5 µg/mL: MIC [14]
0.39 µg/mL: MIC [4] | MIC [6] | MIC [16] | MIC [29]
0.78 µg/mL: MIC ([2]; 37°C, 18 hours) | MIC (Escherichia coli W677) | MIC [17] | MIC (Salmonella typhosa T-63)
high antibacterial activity: antibacterial activity [1] | antibacterial activity [10]
< 0.2 µg/mL: MIC [8] | MIC [9] | MIC [12] | MIC [15] | MIC (Bacillus anthracis) | MIC [26]
> 100 mg/kg: LD50 [25]
3.13 µg/mL: MIC ([5]; JR66/W677, 18 h) | MIC [7] | MIC [11] | MIC [19] | MIC [20] | MIC [21] | MIC (Shigella sonnei JS 11746)
1.56 µg/mL: MIC ([3]; K12ML1629, 37°C, 18 hours) | MIC (Sarcina lutea PCI 1001; PCI1001, 37°C, 18 hours) | MIC (Escherichia coli NIHJ; 37°C, 18 hours) | MIC ([18]; 22NO.3038, 37°C, 18 hours) | MIC [22] | MIC (Escherichia coli K-12) | MIC ([23]; NO.12, 37°C, 18 hours) | MIC [24] | MIC [27] | MIC [28]
0.2 µg/mL: MIC (Proteus vulgaris OX 19)
